Patent US11236121B2, “Crystalline 19-nor C3,3-disubstituted C21-N-pyrazolyl steroid” (priority 2016, dated 2022)
Values after ≈ are worked out from the molar mass of the structure shown. “Also recorded” adds a separate entry of the source. Read-outs that look alike come from different tables or passages of the source.

Experiments:
[1] = format: physicochemical; settings: for stability of the crystalline form in words: XRPD, ambient conditions
Procedure: A PANalytical Empyrean X-ray powder diffractometer with a 12-well auto-sampler stage was used for analysis throughout this study. Resolution calibration of the instrument was performed every 6 months, and sensitivity measurements were performed after the sample stage was changed. A silicon (Si) pressed powder sample was used as the reference standard.
The wet cake of Form P (˜5 min air) was dried in two ways: (a) under air at room temperature overnight, and (b) under vacuum at 40° C. for 3 hours. Both dried cakes were analyzed by XRPD, 1H-NMR, and TGA.

[2] = Hygroscopicity by dynamic vapor sorption (DVS); format: physicochemical; settings: for water uptake at 80% RH / water uptake at 95% RH: DVS isotherm; for water uptake at 80% RH / water uptake at 95% RH / form change before and after DVS (XRPD) / hygroscopicity: 25° C.; for form change before and after DVS (XRPD) / hygroscopicity / water uptake at RH less than or equal to 95%: DVS; for water uptake at RH less than or equal to 95%: RH less than or equal to 95% (description section)
Procedure: Dynamic vapor sorption (DVS) was measured via an SMS (Surface Measurement Systems) DVS Intrinsic system. The relative humidity at 25° C. was calibrated against the deliquescence point of LiCl, Mg(NO3)2, and KCl.
The hygroscopicity of Form A, Form C, and Form K were investigated at 25° C. using DVS. The XRPD patterns of each sample before and after DVS were compared in order to investigate any potential form change.

[3] = Equilibrium solubility of Forms A, C and P in ethyl acetate; format: physicochemical
Procedure: (§1) Solubility profiles of Forms A, C and P across a range of temperature can give an indication of the relative stability of different forms within different temperature ranges. Sufficient equilibrium solubility data were collected experimentally covering 5-70° C.

[4] = Crystal form and relative stability of slurried solids in EtOAc, checked by XRPD; format: physicochemical; settings: for Crystal Form Checked by XRPD: ethyl acetate
Procedure: During solubility measurements, an XRPD pattern was detected in (a) slurries of Form A in EtOAc at 5° C. (after 1 h) and 20° C. (after 2 days), (b) slurries of Form C in EtOAc at 5° C. (after 1 h) and 20° C. (after 7 days). There was no direct match of this solid form's XRPD pattern to other crystal forms of Compound 1.
as §1

[5] = format: physicochemical
Procedure: In each experiment, approximately 10 to 20 mg of Form A was suspended in 0.5 mL of a solvent or mixture of solvents. After stirring at RT or 50° C. for 48 hours, the solids were isolated by centrifugation for analysis (wet sample). If the suspensions turned into clear solution, the clear solutions were kept at ambient conditions for slow evaporation.
In one embodiment, the inter-conversion between Forms A, C and K can be studied in a series of slurry conversion experiments conducted in ethyl acetate, n-butanol, and methyl tert-butyl ether (MBTE) at both room temperature (RT) and 50° C. Compound 1 can display moderate solubility, and may yield solvated forms during these screening experiments. The transition temperature between Forms A and C was estimated to be ˜17° C., and the transition temperature between Forms K and C was above 100° C.

C[C@@]1(O)CC[C@H]2[C@H](CC[C@@H]3[C@@H]2CC[C@]2(C)[C@@H](C(=O)Cn4cc(C#N)cn4)CC[C@@H]32)C1 [Form H]
stability of the crystalline form in words [1]: metastable

C[C@@]1(O)CC[C@H]2[C@H](CC[C@@H]3[C@@H]2CC[C@]2(C)[C@@H](C(=O)Cn4cc(C#N)cn4)CC[C@@H]32)C1 [Form I]
stability of the crystalline form in words [1]: metastable

C[C@@]1(O)CC[C@H]2[C@H](CC[C@@H]3[C@@H]2CC[C@]2(C)[C@@H](C(=O)Cn4cc(C#N)cn4)CC[C@@H]32)C1 [Form A]
water uptake at 80% RH [2]: 0.06 % by weight | water uptake at 95% RH [2]: less than 0.12 % by weight | form change before and after DVS (XRPD) [2]: no form change | hygroscopicity [2]: non-hygroscopic | water uptake at RH less than or equal to 95% [2]: less than 0.30 weight percent | solubility at 2 day ([3]; 20 °C, organic solvent or mixture, thermodynamic from solid, equilibration 2 day): 12.4 mg/mL (≈ 30.3 mM) | solubility at 4 h ([3]; 30 °C, organic solvent or mixture, thermodynamic from solid, equilibration 4 h): 15.5 mg/mL (≈ 37.8 mM) | solubility at 7 h ([3]; 40 °C, organic solvent or mixture, thermodynamic from solid, equilibration 7 h): 18.8 mg/mL (≈ 45.9 mM) | solubility at 20 h ([3]; 50 °C, organic solvent or mixture, thermodynamic from solid, equilibration 20 h): 25 mg/mL (≈ 61 mM) | solubility at 4 h ([3]; 60 °C, organic solvent or mixture, thermodynamic from solid, equilibration 4 h): 31.7 mg/mL (≈ 77.4 mM) | solid form detected by XRPD in slurry in EtOAc ([4]; 5° C., after 1 h): Form P | solid form detected by XRPD in slurry in EtOAc ([4]; 20° C., after 2 days): Form P | Crystal Form Checked by XRPD ([4]; 20 ° C., 2 day): No Form Change | Crystal Form Checked by XRPD ([4]; 30 ° C., 4 h): No Form Change | Crystal Form Checked by XRPD ([4]; 40 ° C., 7 h): No Form Change | Crystal Form Checked by XRPD ([4]; 50 ° C., 20 h): No Form Change | Crystal Form Checked by XRPD ([4]; 60 ° C., 4 h): No Form Change

C[C@@]1(O)CC[C@H]2[C@H](CC[C@@H]3[C@@H]2CC[C@]2(C)[C@@H](C(=O)Cn4cc(C#N)cn4)CC[C@@H]32)C1 [Form L]
stability of the crystalline form in words [1]: metastable

C[C@@]1(O)CC[C@H]2[C@H](CC[C@@H]3[C@@H]2CC[C@]2(C)[C@@H](C(=O)Cn4cc(C#N)cn4)CC[C@@H]32)C1 [Form J]
stability of the crystalline form in words [1]: metastable | form after drying (XRPD) ([1]; drying at ambient conditions for 3 days): transforms to Form A

C[C@@]1(O)CC[C@H]2[C@H](CC[C@@H]3[C@@H]2CC[C@]2(C)[C@@H](C(=O)Cn4cc(C#N)cn4)CC[C@@H]32)C1 [Forms A and K]
Final Form after slurry conversion ([5]; Ethyl acetate, 50° C.): Form C

C[C@@]1(O)CC[C@H]2[C@H](CC[C@@H]3[C@@H]2CC[C@]2(C)[C@@H](C(=O)Cn4cc(C#N)cn4)CC[C@@H]32)C1 [Form P]
XRPD pattern of dried cake ([1]; wet cake dried under air at room temperature overnight): conforming to Form P | XRPD pattern of dried cake ([1]; wet cake dried under vacuum at 40° C. for 3 hours): conforming to Form A | solubility at 20 h ([3]; 5 °C, organic solvent or mixture, thermodynamic from solid, equilibration 20 h): 5.4 mg/mL (≈ 13.2 mM) | solubility at 3 day ([3]; 10 °C, organic solvent or mixture, thermodynamic from solid, equilibration 3 day): 6.6 mg/mL (≈ 16.1 mM) | solubility at 2 day ([3]; 15 °C, organic solvent or mixture, thermodynamic from solid, equilibration 2 day): 8 mg/mL (≈ 19.5 mM) | Solubility ([3]; 20 ° C., equilibration 2 day): 11.4 mg/mL (≈ 27.8 mM) | solubility at 20 h ([3]; 25 °C, organic solvent or mixture, thermodynamic from solid, equilibration 20 h): 12.6 mg/mL (≈ 30.8 mM) | solubility at 20 h ([3]; 30 °C, organic solvent or mixture, thermodynamic from solid, equilibration 20 h): 13.5 mg/mL (≈ 33 mM) | relative stability of forms ([4]; EtOAc, ≤20° C.): more stable than both Forms A and C; also recorded: more stable than Form C | stability in EtOAc ([4]; EtOAc, ≥35° C.): converts to Form A | Crystal Form Checked by XRPD ([4]; 5 ° C., 20 h): Form P | Crystal Form Checked by XRPD ([4]; 10 ° C., 3 day): Form P | Crystal Form Checked by XRPD ([4]; 15 ° C., 2 day): Form P | Crystal Form Checked by XRPD ([4]; 20 ° C., 2 day): No Form Change | Crystal Form Checked by XRPD ([4]; 25 ° C., 20 h): Form P | Crystal Form Checked by XRPD ([4]; 30 ° C., 20 h): Form P | Crystal Form Checked by XRPD ([4]; 40 ° C., 24 h): Form P to Form

C[C@@]1(O)CC[C@H]2[C@H](CC[C@@H]3[C@@H]2CC[C@]2(C)[C@@H](C(=O)Cn4cc(C#N)cn4)CC[C@@H]32)C1 [Form E]
form after drying (XRPD) ([1]; drying at ambient (room temperature) conditions): transformed to a mixture of Forms A and C that exhibited low crystallinity

C[C@@]1(O)CC[C@H]2[C@H](CC[C@@H]3[C@@H]2CC[C@]2(C)[C@@H](C(=O)Cn4cc(C#N)cn4)CC[C@@H]32)C1 [Form K]
water uptake at 80% RH [2]: 0.18 % by weight | water uptake at 95% RH [2]: less than 0.35 % by weight | form change before and after DVS (XRPD) [2]: no form change | hygroscopicity [2]: non-hygroscopic | water uptake at RH less than or equal to 95% [2]: less than 0.35 weight percent

C[C@@]1(O)CC[C@H]2[C@H](CC[C@@H]3[C@@H]2CC[C@]2(C)[C@@H](C(=O)Cn4cc(C#N)cn4)CC[C@@H]32)C1 [Forms A, C and K]
Final Form after slurry conversion ([5]; MBTE, 50° C.): Form C | Final Form after slurry conversion ([5]; MBTE, RT): Form C | Final Form after slurry conversion ([5]; n-Butanol, 50° C.): Form C | Final Form after slurry conversion ([5]; n-Butanol, RT): Form C

C[C@@]1(O)CC[C@H]2[C@H](CC[C@@H]3[C@@H]2CC[C@]2(C)[C@@H](C(=O)Cn4cc(C#N)cn4)CC[C@@H]32)C1 [Forms A and K (with Form C seeds)]
Final Form after slurry conversion ([5]; Ethyl acetate, RT): Form C

C[C@@]1(O)CC[C@H]2[C@H](CC[C@@H]3[C@@H]2CC[C@]2(C)[C@@H](C(=O)Cn4cc(C#N)cn4)CC[C@@H]32)C1 [Form N]
form after storage (XRPD) ([1]; overnight, under ambient conditions): transforms to Form A

C[C@@]1(O)CC[C@H]2[C@H](CC[C@@H]3[C@@H]2CC[C@]2(C)[C@@H](C(=O)Cn4cc(C#N)cn4)CC[C@@H]32)C1 [Form C]
water uptake at 80% RH [2]: 0.12 % by weight | water uptake at 95% RH [2]: less than 0.30 % by weight | form change before and after DVS (XRPD) [2]: no form change | hygroscopicity [2]: non-hygroscopic | water uptake at RH less than or equal to 95% [2]: less than 0.32 weight percent | Solubility ([3]; 20 ° C., equilibration 2 day): 11.8 mg/mL (≈ 28.8 mM) | Solubility ([3]; 30 ° C., equilibration 4 h): 14.9 mg/mL (≈ 36.4 mM) | Solubility ([3]; 40 ° C., equilibration 7 h): 17.9 mg/mL (≈ 43.7 mM) | Solubility ([3]; 50 ° C., equilibration 20 h): 23.7 mg/mL (≈ 57.9 mM) | Solubility ([3]; 60 ° C., equilibration 4 h): 29.8 mg/mL (≈ 72.8 mM) | solid form detected by XRPD in slurry in EtOAc ([4]; 5° C., after 1 h): Form P | solid form detected by XRPD in slurry in EtOAc ([4]; 20° C., after 7 days): Form P | relative stability of forms ([4]; EtOAc, across the entire processing temperature range (5-70° C. data)): more stable than Form A | Crystal Form Checked by XRPD ([4]; 20 ° C., 2 day): No Form Change | Crystal Form Checked by XRPD ([4]; 30 ° C., 4 h): No Form Change | Crystal Form Checked by XRPD ([4]; 40 ° C., 7 h): No Form Change | Crystal Form Checked by XRPD ([4]; 50 ° C., 20 h): No Form Change | Crystal Form Checked by XRPD ([4]; 60 ° C., 4 h): No Form Change | transition temperature between Forms A and C ([5]; estimated from slurry conversion experiments): ~17 °C | transition temperature between Forms K and C ([5]; from slurry conversion experiments): above 100 °C | thermodynamic stability compared to Form A and Form K ([5]; slurry conversion in ethyl acetate, n-butanol or methyl tert-butyl ether, room temperature to 50° C.): more thermodynamically stable
